Test results taken from the NIST ThermoML archive (doi:10.1021/je034162x).
± gives the expanded uncertainty stated by the source.

Conditions: 101.33 kPa, Liquid, Hot wire method

CCCc1ccccc1 [propylbenzene]
Conditions | thermal conductivity [W/m/K] | thermal diffusivity [m2/s]
261.18 K | 0.1358 ± 0.0009 | –
261.4 K | 0.1357 ± 0.0009 | –
261.57 K | 0.1356 ± 0.0009 | –
262.04 K | – | 9.04e-08 ± 1.7e-09
262.63 K | – | 9.06e-08 ± 1.7e-09
263.06 K | – | 9.06e-08 ± 1.7e-09
275.09 K | 0.133 ± 0.00089 | –
275.33 K | 0.1328 ± 0.00089 | –
275.5 K | 0.1328 ± 0.00089 | –
275.98 K | – | 8.84e-08 ± 1.7e-09
276.61 K | – | 8.87e-08 ± 1.7e-09
277.03 K | – | 8.85e-08 ± 1.7e-09
294.17 K | 0.1286 ± 0.00086 | –
294.42 K | 0.1285 ± 0.00086 | –
294.6 K | 0.1285 ± 0.00086 | –
295.08 K | – | 8.49e-08 ± 1.6e-09
295.74 K | – | 8.53e-08 ± 1.6e-09
296.19 K | – | 8.52e-08 ± 1.6e-09
312.54 K | 0.1247 ± 0.00084 | –
312.79 K | 0.1246 ± 0.00084 | –
312.97 K | 0.1245 ± 0.00084 | –
313.45 K | – | 8.14e-08 ± 1.5e-09
314.1 K | – | 8.16e-08 ± 1.5e-09
314.56 K | – | 8.15e-08 ± 1.5e-09
329.54 K | 0.1208 ± 0.00081 | –
329.79 K | 0.1207 ± 0.00081 | –
329.98 K | 0.1207 ± 0.00081 | –
330.45 K | – | 7.8e-08 ± 1.5e-09
331.09 K | – | 7.79e-08 ± 1.5e-09
331.57 K | – | 7.81e-08 ± 1.5e-09

[2H]c1c([2H])c([2H])c(C([2H])([2H])[2H])c([2H])c1[2H] [toluene-d8]
Conditions | thermal conductivity [W/m/K] | thermal diffusivity [m2/s]
259.69 K | 0.1349 ± 0.0011 | –
259.91 K | 0.1348 ± 0.0011 | –
260.06 K | 0.1348 ± 0.0011 | –
260.47 K | – | 8.33e-08 ± 1.6e-09
261.03 K | – | 8.36e-08 ± 1.6e-09
261.42 K | – | 8.36e-08 ± 1.6e-09
279.35 K | 0.1298 ± 0.001 | –
279.57 K | 0.1297 ± 0.001 | –
279.73 K | 0.1296 ± 0.001 | –
280.14 K | – | 7.9e-08 ± 1.5e-09
280.69 K | – | 7.9e-08 ± 1.5e-09
281.08 K | – | 7.88e-08 ± 1.5e-09
296.9 K | 0.1251 ± 0.001 | –
297.13 K | 0.1249 ± 0.001 | –
297.28 K | 0.1249 ± 0.001 | –
297.69 K | – | 7.52e-08 ± 1.4e-09
298.25 K | – | 7.51e-08 ± 1.4e-09
298.64 K | – | 7.51e-08 ± 1.4e-09
315.84 K | 0.12 ± 0.00096 | –
316.08 K | 0.1199 ± 0.00096 | –
316.24 K | 0.1198 ± 0.00096 | –
316.65 K | – | 7.15e-08 ± 1.4e-09
317.21 K | – | 7.13e-08 ± 1.4e-09
317.61 K | – | 7.11e-08 ± 1.4e-09
326.47 K | 0.1173 ± 0.00094 | –
326.7 K | 0.1172 ± 0.00094 | –
326.87 K | 0.117 ± 0.00094 | –
327.28 K | – | 6.95e-08 ± 1.3e-09
327.85 K | – | 6.93e-08 ± 1.3e-09
328.25 K | – | 6.9e-08 ± 1.3e-09
